Source: publication PMC9343874, “Comparative Pharmacokinetics of Cinobufacini Capsule and Injection by UPLC-MS/MS” (Frontiers in Pharmacology, 2022)
Read-outs that look alike come from different tables or passages of the source.

How the values were obtained:
[1] = set-up: method as in Huang et al., 2015; details: after administration of Shexiang Baoxin pill; ref Huang et al., 2015; cited from earlier work
[2] = Stability of analytes in rat plasma QC samples under storage conditions; type: physicochemical; details: n = 6; for Stability during 24 h at 4°C, RE: post-treatment storage in autosampler; for −80°C for 30 days, RE / Three freeze–thaw cycles, RE: rat plasma; for −80°C for 30 days, RE: long-term; for Three freeze–thaw cycles, RE: −80°C to room temperature
Method: The stability of QC samples in six replicates at three concentrations (low, medium, and high levels) was analyzed under different storage conditions: the post-treatment stability was analyzed after storage in an autosampler (4°C) for 24 h. Freeze–thaw stability was investigated after three freeze–thaw cycles (−80°C to room temperature as one cycle). Long-term stability was assessed by analyzing QC samples kept at −80°C for 30 days. The concentrations of the analytes in the plasma samples and the QC samples were calculated by the calibration standard curve prepared each day. The stabilities of analytes were acceptable when the accuracy (RE, %) and precision (RSD, %) of all QC samples in all storage conditions were within ±15% compared to nominal concentrations.

[3] = Pharmacokinetic study in rats after intravenous administration of cinobufacini injection (UPLC-MS/MS of plasma); type: in vivo, rat; details: cinobufacini injection group, intravenous
Method: (§1) Male Sprague–Dawley rats (weighing 200–220 g) of SPF grade were offered by Sippr/BK laboratory Animal, Corp., Ltd. (Shanghai, China) and fed in the Laboratory Animal Center of the Shanghai University of Traditional Chinese Medicine. All the rats were kept under environmentally controlled conditions with constant temperature (22–24°C) and humidity (60–65%). The animal experiment program in the present research was approved by the Animal Committee of the Shanghai University of Traditional Chinese Medicine (PZSHUTCM210618012).
(§2) An Agilent 1290 liquid chromatographic system includes a G4220A quaternary pump, a G1326C column incubator, a G4226A automatic sampler, and a G1330B degasser. The column temperature was set to 35°C. A measure of 5 µL of samples were separated in an Agilent SB-C18 column (2.1 mm ×50 mm, 1.8 μm) and eluted at 0.3 ml/min, followed by gradient elution with water (0.1% V/V formic acid) (A) and acetonitrile (B) (0–1 min, 20%–20% B; 1–3.5 min, 20%–80% B; 4–4.1 min, 80%-20% B; 4.1–6 min, 20% B). The total run time was 6 minutes.
(§3) An Agilent 1290 Infinity series UPLC system was combined with an Agilent 6460 series triple quadrupole mass spectrometer (Agilent Technologies, Santa Clara, CA, United States) to quantify all 13 analytes in an ESI-positive ionization mode. Quantitative analysis was performed in an MRM mode. The mass spectrum conditions were as follows: capillary voltage, 4000V; drying gas (N2), gas flow rate: 10 L/min; sprayer, 30 psi; gas temperature 350°C; The delta EMV (+) 200 V; collision gas (N2); dwell time, 25 ms. Agilent’s MassHunter Workstation software was used for data collection, peak area calculation, and quantitative analysis.
(§4) A measure of 50 µL of the plasma sample was mixed with 10 µL of the internal standard solution (345 ng/ml) in a 1.5-ml centrifuge tube and vortexed for 5 min. The samples were extracted by 500 µL of ethyl acetate for 5 min and centrifuged at 4°C for 10 min (18000 rpm). All the supernatants were collected into another 1.5-ml centrifuge tube, dried under a gentle stream of nitrogen at 37°C, and then added with 50 µL of 80% methanol for resolution. The resolution samples were centrifuged at 4°C for 10 min (18000 rpm), and 5 µL supernatant was extracted and injected for analysis.
(§5) Twenty-four male Sprague–Dawley rats (weigh 200–220 g) were divided into four groups with six rats in each group randomly, including three capsule groups at three different doses and one injection group. In the instructions for cinobufacini capsule and injection, the clinical dosage for adults is 2 g per 70 kg orally and 20 ml per 70 kg intravenously, converting to rat doses of 180 mg/kg and 1.8 ml/kg, respectively.
(§6) In the pre-experiments, we compared cinobufacini capsule of 180 mg/kg (one-time clinical dose) and 900 mg/kg (five times of clinical dose) and Cinobufacini injection of 1.8 ml/kg, but concentrations of some compounds in plasma were too low and difficult to be quantified. […] The experimental rats were led to fast the night and were free to get access to water for 12 h before the pharmacokinetic study. After administration, blood samples (approximately 150 μL) of rats were collected via retro-orbital sinus into heparinized centrifuge tubes at 0.05, 0.083, 0.25, 0.5, 0.75, 1, 2, 4, 6, 8, and 10 h. After centrifugation at 5,000 rpm for 10 min, the plasma was transferred to 1.5-ml polypropylene tubes and stored at −80°C until UPLC-MS/MS analysis.
(§7) GraphPad Prism software (version 8.0.2) was used to draw the mean plasma concentration–time curves of all analytes. The pharmacokinetic parameters were calculated by DAS 3.2.8 software. Meanwhile, the pharmacokinetic data on rats were presented as mean ± standard deviation (SD). Differences of pharmacokinetic parameters between groups were analyzed by the t-test using SPSS software (version 26.0). Differences were considered significant statistically when the p-values were <0.05 and very significant statistically when the p-values were <0.01.

[4] = Pharmacokinetic study in rats after oral administration of cinobufacini capsule (UPLC-MS/MS of plasma); type: in vivo, rat; details: for detection in rat plasma: cinobufacini capsule groups
Method: as §1, §2, §3, §4, §5, §6, §7

[5] = set-up: method as in Wang et al., 2014; details: administration dose 1.11 mg/kg; ref Wang et al., 2014; cited from earlier work
[6] = high QC level (249.58–250.28 ng/ml)
[7] = medium QC level (49.92–50.06 ng/ml)

Row | Structure (SMILES) | concentration in plasma [1] | Stability during 24 h at 4°C, RE [2, 6] [%] | Stability during 24 h at 4°C, RE ([2]; low QC level (4.99–5.00 ng/ml)) [%] | Stability during 24 h at 4°C, RE [2, 7] [%] | −80°C for 30 days, RE [2, 6] [%] | −80°C for 30 days, RE ([2]; low QC level (4.99–5.00 ng/ml)) [%] | −80°C for 30 days, RE [2, 7] [%] | Three freeze–thaw cycles, RE [2, 6] [%] | Three freeze–thaw cycles, RE ([2]; low QC level (4.99–5.00 ng/ml)) [%] | Three freeze–thaw cycles, RE [2, 7] [%] | detection in rat plasma [3] | detection in rat plasma [4] | concentration in plasma ([4]; present study) | Cmax [5] [ng/mL] | detection in plasma [1]
1 | CC(=O)O[C@H]1C[C@]2(O)[C@@H]3CC[C@@H]4C[C@@H](O)CC[C@]4(C)[C@H]3CC[C@]2(C)[C@H]1c1ccc(=O)oc1 [BL, bufotalin] | lower than 4.4 ng/ml | 5.7 | 11.4 | 5.0 | 6.0 | 2.3 | 2.1 | 7.1 | 3.4 | 3.1 | could not be detected | could not be detected | too low to calculate the pharmacokinetics parameters accurately |  | 
2 | CC(=O)O[C@H]1[C@H]2O[C@]23[C@@H]2CC[C@@H]4C[C@@H](O)CC[C@]4(C)[C@H]2CC[C@]3(C)[C@H]1c1ccc(=O)oc1 [CBG, cinobufagin] |  | 0.6 | 4.8 | −3.2 | 2.3 | 3.7 | −1.0 | 3.4 | 4.8 | 0.0 | could not be detected | could not be detected |  | 4.49 | not detected
3 | CC(=O)O[C@H]1[C@H]2O[C@]23[C@@H]2CC[C@]4(O)C[C@@H](O)CC[C@]4(C)[C@H]2CC[C@]3(C)[C@H]1c1ccc(=O)oc1 [CBT, cinobufotalin] |  | 4.8 | 9.8 | 7.7 | −8.7 | −0.3 | 4.1 | 12.0 | 4.3 | 13.2 | could not be detected | could not be detected |  |  | 
4 | C[C@]12CC[C@H](O)C[C@H]1CC[C@@H]1[C@@H]2CC[C@]2(C)[C@@H](c3ccc(=O)oc3)C[C@H]3O[C@]132 [RBG, resibufogenin] |  | −3.3 | −6.4 | 3.5 | −2.8 | −1.3 | 2.3 | −1.9 | −0.3 | 3.3 | could not be detected | could not be detected |  |  | 
